Assay [1] relates to mice. The assay can be described thus: urine protein excretion in treated mice. It counts as in vivo. The source says:
(§1) Other characteristics and advantages of the invention will become apparent from the example which follows relating to the preparation of the modified peptide and to the study of its activity against an autoimmune disease. Systemic lupus presents an easy clinical symptom to follow because of the large urinary protein excretion that accompanies the disorder that results from an associated renal condition, glomerulonephritis. Levels of protein secretion were followed to assess the effectiveness of the modified peptide in addressing the underlying autoimmune disorder.
(§2) The specific peptide […] (SEQ ID NO: 1), which is a 21-amino acid sequence of the 70 kDa snRNP protein corresponding to residues 131-151, was synthesized in its phosphorylated form (in the 10 position—P10). This self-protein, which is normally present in each cell, is recognized by T-cells and antibodies from lupus patients and mice as an antigen toward which the immune system is reacting, generating a so-called autoimmune reaction.

Assay [2] concerns mice. Briefly: survival rate of mice after multiple administrations of peptide. It counts as in vivo.
From the text: as §1, §2

Assay [3] relates to CD4+ T cells. Briefly: production of IL-2 (interluekin-2) by CD4+ T cells. The format is cell-based, mice.
From the text: as §2

Consider RIHMVYSKRSGKPRGYAFIEY [P10], for which, in assay [1], the urine protein excretion result is given as “reduced”. This sequence also gave a survival rate in assay [2] (mice, after multiple administrations (similar to a vaccine), compared to 0%) of 55%. For the same sequence, in assay [3], the “production of IL-2 (interluekin-2) by CD4+ T cells” value is “increased significantly”. Regarding “RIHMVYSKRSGKPRGYAFIEY (lysine acetylation, position unspecified; listed as Homo sapiens) [acetylated peptide]”, the “activity (preliminary data)” value in assay [2] (preliminary data, compared with the phosphorylated peptide P10) is recorded as “even stronger activity”. With “RIHMVYSKRSGKPRGYAFIEY (listed as Homo sapiens) [natural (non-phosphorylated) peptide, reference compound]”, the “improvement in the survival rate (in words)” value in assay [2] (mice, after administration of the peptide) is “unable to improve significantly the survival rate”.

These data come from patent US20100047333A1, “Modified Peptides and Their Use for the Treatment of Autoimmune Diseases” (priority 2001, published 2010).
